Measured values as given in patent publication US6610710B2, “Phenylalanine derivatives” (Ajinomoto Co., Inc., priority 1999, dated 2003).
pIC50: −log10 of the molar value.

molecular target: T1, integrin α4β1 (Jurkat cells) binding with recombinant human VCAM-1 (Homo sapiens, UniProt P05556+P13612); assay: VCAM antagonistic activity (VCAM-1/α4β1 binding assay), Jurkat cell adhesion; type: cell-based; conditions: read-out: VCAM/α 4 β 1 antagonistic activity to integrin (IC50)
T1 construct: cell strain Jurkat (ATCC TIB-152) of human T cells, known to express integrin α4β1; endogenous in cells; host or cells: Jurkat (ATCC TIB-152), human T cells
Procedure: (Test Example) VCAM Antagonistic Activity (VCAM-1/α4β1 Binding Assay):
The capacity of a test substance antagonistic to the binding of cell strain Jurkat (ATCC TIB-152) of human T cells, known to express integrin α4β1, with VCAM-1 was determined. 100 μl/well of a solution (500 ng/ml ) of recombinant human VCAM-1 (R & D systems) diluted with buffer A (0.1 M NaHCO3, pH 9.6) was added to a micro titer plate having 96 wells (Nunc Maxisorp). After the incubation at 4° C. overnight, unbound VCAM-1 was removed by once washing with PBS. After completion of the washing, a buffer (buffer B) obtained by diluting Block Ace® (Dainippon Pharmaceutical Co., Ltd.) with PBS to 1/4 concentration was added in an amount of 150 μl /well. After the incubation at room temperature for 1 hour, buffer B was removed and the plate was washed with PBS once.
Jurkat cells were washed with Dulbecco modified Eagle medium (SIGMA, hereinafter referred to as “DMEM”) twice and then incubated in DMEM containing 10 μg/ml of Calcein-AM (Wako Pure Chemical Industries, Ltd.) at 37° C. in dark place for 30 minutes to label them with fluorescence. The cells were again suspended in a binding buffer (DMEM containing 20 mM HEPES, 0.1% BSA).
50 μl of a test substance of various concentrations obtained by the dilution with the binding buffer was added to the plate. Immediately thereafter, 50 μl (final volume: 100 μl/well) of the fluorescent Jurkat cells (4×10^6 cells/ml ) were added thereto, and they were incubated at room temperature for 30 minutes. After the shaking on a plate shaker (IKA MTS-4) at 800 rpm for 30 seconds, the solution was immediately removed to remove the unbound cells. The fluorescence quantity of the bound cells remaining in the wells was determined with a fluorescent plate reader (Wallac 1420 ARVO multi-label counter) (filter excitation wave length: 485 nm, emission wave length: 535 nm). The fluorescent strength thus obtained is proportional to the number of Jurkat cells bound to VCAM-1 and remaining on the plate. The binding rate of each test material in various concentrations was determined while the fluorescent strength of the test material-free well was determined to be 100%. The concentration IC50 for the 50% binding inhibition was calculated.

T1 sequence (P13612 34-1032): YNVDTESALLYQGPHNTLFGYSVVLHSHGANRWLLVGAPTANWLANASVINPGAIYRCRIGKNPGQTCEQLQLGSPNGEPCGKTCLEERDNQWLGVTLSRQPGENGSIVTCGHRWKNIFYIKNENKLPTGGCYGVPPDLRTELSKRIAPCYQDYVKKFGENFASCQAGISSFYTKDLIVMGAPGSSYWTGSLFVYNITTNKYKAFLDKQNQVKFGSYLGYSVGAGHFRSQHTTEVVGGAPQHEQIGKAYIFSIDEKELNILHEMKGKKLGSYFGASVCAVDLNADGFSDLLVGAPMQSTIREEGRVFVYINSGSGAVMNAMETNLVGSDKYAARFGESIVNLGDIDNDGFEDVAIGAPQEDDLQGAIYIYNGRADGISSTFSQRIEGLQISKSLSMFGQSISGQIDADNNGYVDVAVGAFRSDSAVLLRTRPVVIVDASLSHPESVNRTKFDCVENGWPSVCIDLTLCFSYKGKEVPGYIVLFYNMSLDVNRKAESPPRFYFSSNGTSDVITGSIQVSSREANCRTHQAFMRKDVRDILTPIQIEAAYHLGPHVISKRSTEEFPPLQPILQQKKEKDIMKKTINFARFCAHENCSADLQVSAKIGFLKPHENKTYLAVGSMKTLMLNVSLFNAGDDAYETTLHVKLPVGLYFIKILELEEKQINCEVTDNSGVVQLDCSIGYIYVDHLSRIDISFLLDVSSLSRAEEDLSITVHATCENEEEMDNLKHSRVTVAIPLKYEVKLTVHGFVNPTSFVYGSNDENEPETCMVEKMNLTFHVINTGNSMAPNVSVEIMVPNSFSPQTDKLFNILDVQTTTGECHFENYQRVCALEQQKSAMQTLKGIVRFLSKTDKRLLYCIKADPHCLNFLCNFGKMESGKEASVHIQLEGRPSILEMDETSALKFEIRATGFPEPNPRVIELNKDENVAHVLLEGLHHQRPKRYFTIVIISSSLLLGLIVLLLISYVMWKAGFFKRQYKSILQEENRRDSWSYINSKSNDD
T1 sequence (P05556 21-798): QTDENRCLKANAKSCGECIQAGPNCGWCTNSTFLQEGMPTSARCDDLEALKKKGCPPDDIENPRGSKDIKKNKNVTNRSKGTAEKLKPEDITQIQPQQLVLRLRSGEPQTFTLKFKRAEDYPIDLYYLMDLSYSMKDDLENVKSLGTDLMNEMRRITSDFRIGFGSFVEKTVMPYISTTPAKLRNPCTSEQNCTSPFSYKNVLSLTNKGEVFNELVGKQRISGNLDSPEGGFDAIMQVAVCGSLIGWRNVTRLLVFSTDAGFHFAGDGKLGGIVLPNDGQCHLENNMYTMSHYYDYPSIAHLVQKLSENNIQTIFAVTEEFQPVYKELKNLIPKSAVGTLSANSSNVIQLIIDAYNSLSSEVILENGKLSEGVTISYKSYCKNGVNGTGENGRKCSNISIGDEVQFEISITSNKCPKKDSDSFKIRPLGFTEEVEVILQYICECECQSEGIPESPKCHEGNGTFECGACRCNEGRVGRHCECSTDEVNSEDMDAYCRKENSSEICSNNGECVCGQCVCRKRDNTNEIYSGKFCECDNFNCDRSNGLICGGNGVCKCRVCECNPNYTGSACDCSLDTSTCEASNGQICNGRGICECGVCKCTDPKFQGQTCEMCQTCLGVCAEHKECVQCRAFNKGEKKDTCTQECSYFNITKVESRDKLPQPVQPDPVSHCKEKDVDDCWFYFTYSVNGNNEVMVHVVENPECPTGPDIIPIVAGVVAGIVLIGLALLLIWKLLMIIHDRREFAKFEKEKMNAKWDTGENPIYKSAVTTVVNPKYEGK

| SMILES | pIC50 |
| --- | --- |
| O=C(O)[C@H](Cc1ccc(OCc2c(Cl)cccc2Cl)cc1)NC(=O)[C@H]1CC[C@H](C(=O)O)CC1 [Example 2, N-(Trans-4-carboxycyclohexane-1-carbonyl)-O-(2,6-dichlorobenzyl)-L-tyrosine] | 4.60 to 5.30 |
| O=C(O)[C@H](Cc1ccc(OCc2c(Cl)cccc2Cl)cc1)NC(=O)[C@H]1CC[C@H](C(=O)NNc2ccccc2)CC1 [Example 3, N-(Trans-4-phenylhydrazinocarbonylcyclohexane-1-carbonyl)-O-(2,6-dichlorobenzyl)-L-tyrosine] | 4.30 to 4.60 |
| O=C(O)[C@H](Cc1ccc(OCc2c(Cl)cccc2Cl)cc1)NC(=O)[C@H]1CC[C@H](C(=O)NNc2ccc(Br)cc2)CC1 [Example 4, N-[Trans-4-(4-bromophenylhydrazinocarbonyl)cyclohexane-1-carbonyl]-O-(2,6-dichlorobenzyl)-L-tyrosine] | 4.30 to 4.60 |
| O=C(O)[C@H](Cc1ccc(OCc2c(Cl)cccc2Cl)cc1)NC(=O)[C@H]1CC[C@H](C(=O)NCc2ccccc2)CC1 [Example 6] | 4.30 to 4.60 |
| COc1ccc(NNC(=O)[C@H]2CC[C@H](C(=O)N[C@@H](Cc3ccc(OCc4c(Cl)cccc4Cl)cc3)C(=O)O)CC2)cc1 [Example 14] | 5.30 to 6.00 |
| Cc1ccc(NNC(=O)[C@H]2CC[C@H](C(=O)N[C@@H](Cc3ccc(OCc4c(Cl)cccc4Cl)cc3)C(=O)O)CC2)cc1 [Example 34] | 5.30 to 6.00 |
| O=C(O)[C@H](Cc1ccc(OCc2c(Cl)cccc2Cl)cc1)NC(=O)[C@H]1CC[C@H](C(=O)NNc2ccc(OC(F)(F)F)cc2)CC1 [Example 35] | 4.30 to 4.60 |
| COc1cccc(NNC(=O)[C@H]2CC[C@H](C(=O)N[C@@H](Cc3ccc(OCc4c(Cl)cccc4Cl)cc3)C(=O)O)CC2)c1 [Example 44] | 4.60 to 5.30 |
| O=C(Nc1ccc(C[C@H](NC(=O)[C@H]2CC[C@H](C(=O)O)CC2)C(=O)O)cc1)c1snnc1-c1ccccc1 [Example 45, N-(Trans-4-carboxycyclohexane-1-carbonyl)-4-{[(4-phenyl-1,2,3-thiadiazole-5-yl)carbonyl]amino}-L-phenylalanine] | 5.30 to 6.00 |
| COc1ccc(NNC(=O)[C@H]2CC[C@H](C(=O)N[C@@H](Cc3ccc(NC(=O)c4snnc4-c4ccccc4)cc3)C(=O)O)CC2)cc1 [Example 46, N-[Trans-4-(4-methoxyphenylhydrazinocarbonyl)cyclohexane-1-carbonyl]-4-{[(4-phenyl-1,2,3-thiadiazole-5-yl)carbonyl]amino}-L-phenyl-alanine] | 4.60 to 5.30 |
| COc1cccc(OC)c1-c1ccc(C[C@H](NC(=O)[C@H]2CC[C@H](C(=O)O)CC2)C(=O)O)cc1 [Example 50, N-(Trans-4-carboxycyclohexane-1-carbonyl)-4-(2,6-dimethoxyphenyl)-L-phenylalanine] | 5.30 to 6.00 |
| COc1ccc(NNC(=O)[C@H]2CC[C@H](C(=O)N[C@@H](Cc3ccc(-c4c(OC)cccc4OC)cc3)C(=O)O)CC2)cc1 [Example 51, N-[Trans-4-(4-methoxyphenylhydrazinocarbonyl)cyclohexane-1-carbonyl]-4-(2,6-dimethoxyphenyl)-L-phenylalanine] | 5.30 to 6.00 |
